Here are results for seven compounds from ChEMBL document CHEMBL2203139, “Synthetic bicyclic iminosugar derivatives fused thiazolidin-4-one as new potential HIV-RT inhibitors” (Bioorg Med Chem Lett, 2012).

Structures are written as SMILES.

The target of the test is Human immunodeficiency virus type 1 reverse transcriptase (Human immunodeficiency virus 1, UniProt Q72547). Briefly: Inhibition of HIV1 reverse transcriptase incubated for 1 hr by colorimetric assay.
The term IC50 denotes the concentration that gives 50% inhibition. Low readings indicate higher potency, high ones lower potency. On to `O=C1CS[C@H]2[C@H](O)[C@H](O)[C@H](O)CN12`, for which the IC50 amounted to 13 µM.
In the case of `O=C1CS[C@@H]2[C@H](O)[C@H](O)[C@H](O)CN12`, 19 µM corresponded to half-maximal inhibition (IC50).
In turn, `O=C1S[C@H]2[C@H](O)[C@H](O)[C@H](O)CN2C1=O` yielded an IC50 of 4.22 µM.
`O=C1C[S+]([O-])[C@H]2[C@H](O)[C@H](O)[C@H](O)CN12` (some centres not stated) showed an IC50 of 10.2 µM.
In the case of `O=C1C(O)S[C@H]2[C@H](O)[C@H](O)[C@H](O)CN12` (some centres not stated), the IC50 was determined as 1.74 µM.
The value for `O=C1S[C@@H]2[C@H](O)[C@H](O)[C@H](O)CN2C1=O` was 5.2 µM.
As for `O=C1C[S+]([O-])[C@@H]2[C@H](O)[C@H](O)[C@H](O)CN12` (some centres not stated), the figure is 2.45 µM.
